The test system of this assay is mechanical allodynia. As to conditions: rat, in vivo.

The text below walks through data of patent EP1336409B1 (priority 1995, dated 1997).

As to [ala^12-SNX-111 [SNX-273], the Effective intrathecal doses lay in the range of 0.1 to 0.3 µg, the “apparent order of potency for suppression of allodynia” value is “SNX-111 =SNX-273 > SNX-279” and the “block of mechanical allodynia” value is “block mechanical allodynia significantly”.

In the case of Met(0)^12-SNX-111 [SNX-279], the Effective intrathecal doses lay within 0.1 to 0.3 µg, the “apparent order of potency for suppression of allodynia” value is on record as “SNX-111 =SNX-273 > SNX-279” and the “block of mechanical allodynia” value is on record as “block mechanical allodynia significantly”.
